What was measured:
[1] = system: miR-19b; experiment: RT-qPCR of mature miRNA levels in DU145 cells; type: cell-based, human
Experimental: (§1) In particular, the mature levels of each miRNA in the cluster were studied by RT-qPCR. In agreement with our in vitro Dicer processing studies (FIG. 8A and Figures S-58-S-62), 4 decreases the amount of mature miR-17, -18a, and -20a at low micromolar concentrations with an IC50 of ˜10 µM, but has no effect on miR-19a, -19b, and -92a (FIG. 8B).
(§2) Cell Culture: DU145 cells were cultured in growth medium (Roswell Park Memorial Institute medium (RPMI) supplemented with 10% fetal bovine serum (FBS)) at 37° C. and 5% CO2
(§3) Total RNA was extracted from cells using a Quick-RNA Miniprep Kit (Zymo Research) per the manufacturer's protocol. Approximately 200 ng of total RNA was used in reverse transcription (RT) reactions, which were completed using a miScript II RT kit (Qiagen) per the manufacturer's protocol. RT-qPCR was performed on a 7900HT Fast Real Time PCR System (Applied Biosystem) using power SYBR Green Master Mix (Applied Biosystems). All primer sets were purchased from Integrated DNA Technologies, Inc. (IDT) or Eurofins (Table S1). The expression levels of mature miRNAs were normalized to U6 small nuclear RNA or 18s rRNA.

[2] = system: miR-19a; experiment: RT-qPCR of mature miRNA levels in DU145 cells; type: cell-based, human
Experimental: as §1, §2, §3

[3] = system: miR-92a; experiment: RT-qPCR of mature miRNA levels in DU145 cells; type: cell-based, human
Experimental: as §1, §2, §3

[4] = system: STK4 protein; experiment: Western blotting of STK4 in DU145 cells; type: cell-based; conditions: 20 μM
Experimental: A previous study has shown that miR-18a represses serine/threonine protein kinase 4 (STK4) protein, a tumor suppressor, in prostate cancer cells and promotes tumorigenesis.^45 Thus, we studied the ability of compound 4 to de-repress STK4 and trigger apoptosis. Treatment of DU145 cells with 20 μM of 4 increases levels of STK4 by 2.5-fold (FIG. 9A).
Western Blotting: Cells were grown in 6-well plates to ˜80% confluency in complete growth medium and then incubated with 10 or 20 μM of 4 for 48 h. Total protein was extracted using M-PER Mammalian Protein Extraction Reagent (Pierce Biotechnology) per the manufacturer's recommended protocol. Extracted total protein was quantified using a Micro BCA Protein Assay Kit (Pierce Biotechnology). […]
The membrane was briefly washed with 1× Tris-buffered saline (TBS; 50 mM Tris-CI, pH 7.5. 150 mM NaCl) and blocked with 5% milk in 1×TBST (1×TBS containing 0.05% Tween-20) for 1 h at room temperature. […] After washing with 1×TBST, protein expression was quantified using SuperSignal West Pico Chemiluminescent Substrate (Pierce Biotechnology) per the manufacturer's protocol.
The membrane was then stripped using 1× Stripping Buffer (200 mM glycine, 1% Tween-20 and 0.1% SDS, pH 2.2) followed by washing in 1×TBST. […] ImageJ software from the National Institutes of Health was used to quantify band intensities.

[5] = system: motif in the Dicer site of miR-19a; experiment: Fluorescence-based binding affinity measurement; parameters: species or system human; conditions: miR-19a Dicer site motif
Experimental: (§4) Mutation of the U bulge to an AU pair (RNAC) eliminates binding (Kd>100 μM).
(§5) Binding Affinity Measurements: An in solution, fluorescence-based assay was used to determine binding affinities by monitoring the change in fluorescence intensity of 1-FL (or 2-FL/3-FL/4-FL) as a function of RNA concentration as described previously.^18 Briefly, the RNA of interest was folded in 1× Folding Buffer (8 mM Na2HPO4, pH 7.0, 185 mM NaCl and 1 mM EDTA) by heating at 60° C. for 5 min followed by slowly cooling to room temperature on the bench top. Then, the FL-conjugated compound was added into the RNA solution to a final concentration of 100 nM. Serial dilutions were then completed using 1× Folding Buffer supplemented with 100 nM FL-conjugated compound. The solutions were incubated at room temperature for 30 min and then transferred to a well of a black 384-well plate. Fluorescence intensity was measured using a Bio-Tek FL×800 plate reader with an excitation wavelength of 485/20 nm and an emission wavelength of 528/20 nm. The change in fluorescence intensity as a function of the concentration of RNA was fit to equation 3:^9 I=I0+0.5 Δε{([FL]0+[RNA]0 +Kd)−(([FL]0+[RNA]0+Kd)^2−4[FL]0[RNA]0)^1/2} (3) where I is the observed fluorescence intensity; I0 is the fluorescence intensity in the absence of RNA; Δε is the difference between the fluorescence intensity in the absence of RNA and in the presence of infinite RNA concentration; [FL]0 is the concentration of compound; [RNA]0 is the concentration of the selected RNA; and Kd is the dissociation constant.

[6] = system: motif in the Dicer site of miR-92a; experiment: Fluorescence-based binding affinity measurement; parameters: species or system human; conditions: miR-92a Dicer site motif
Experimental: as §4, §5

[7] = system: motif in the Dicer site of miR-19b; experiment: Fluorescence-based binding affinity measurement; parameters: species or system human; conditions: miR-19b Dicer site motif
Experimental: as §4, §5

## CN1CCN(c2ccc(-c3ccc4nc(-c5cc(C(C)(C)C)c(OCCCC(=O)NCCCN=[N+]=[N-])c(C(C)(C)C)c5)[nH]c4c3)cc2)CC1 [Compound 4]
[1]
  Effect on mature miRNA level: no effect
[2]
  Effect on mature miRNA level: no effect
[3]
  Effect on mature miRNA level: no effect
[4]
  Increase of STK4 levels: 2.5 fold
[5]
  Saturable binding: No saturable binding
[6]
  Saturable binding: No saturable binding
[7]
  Saturable binding: No saturable binding
